Laboratory results published in patent publication US11123337B2, “4-methylsulfonyl-substituted piperidine urea compounds” (MYOKARDIA, INC., priority 2015, dated 2021).

The compounds below were run against bovine cardiac myosin (Bos taurus, UniProt Q9BE39) (assay: Myosin activation assay (PK/LDH-coupled ATPase, bovine cardiac myofibrils)). Settings: AC20 = concentration at which total response is increased by twenty percent.
Type: biochemical
Summary of the method: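 Values are the concentrations raising the ATPase rate by 20% or 50% over DMSO, from 10-point dose responses fitted with four parameters. Rate is NADH loss at 340 nm via PK/LDH coupling, read 15 min at room temperature, in pH 6.8 PIPES with 50 μM ATP. Bovine cardiac myofibrils were held at pCa ~6 or pCa 10.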

bovine cardiac myosin, sequence (Q9BE39 whole entry): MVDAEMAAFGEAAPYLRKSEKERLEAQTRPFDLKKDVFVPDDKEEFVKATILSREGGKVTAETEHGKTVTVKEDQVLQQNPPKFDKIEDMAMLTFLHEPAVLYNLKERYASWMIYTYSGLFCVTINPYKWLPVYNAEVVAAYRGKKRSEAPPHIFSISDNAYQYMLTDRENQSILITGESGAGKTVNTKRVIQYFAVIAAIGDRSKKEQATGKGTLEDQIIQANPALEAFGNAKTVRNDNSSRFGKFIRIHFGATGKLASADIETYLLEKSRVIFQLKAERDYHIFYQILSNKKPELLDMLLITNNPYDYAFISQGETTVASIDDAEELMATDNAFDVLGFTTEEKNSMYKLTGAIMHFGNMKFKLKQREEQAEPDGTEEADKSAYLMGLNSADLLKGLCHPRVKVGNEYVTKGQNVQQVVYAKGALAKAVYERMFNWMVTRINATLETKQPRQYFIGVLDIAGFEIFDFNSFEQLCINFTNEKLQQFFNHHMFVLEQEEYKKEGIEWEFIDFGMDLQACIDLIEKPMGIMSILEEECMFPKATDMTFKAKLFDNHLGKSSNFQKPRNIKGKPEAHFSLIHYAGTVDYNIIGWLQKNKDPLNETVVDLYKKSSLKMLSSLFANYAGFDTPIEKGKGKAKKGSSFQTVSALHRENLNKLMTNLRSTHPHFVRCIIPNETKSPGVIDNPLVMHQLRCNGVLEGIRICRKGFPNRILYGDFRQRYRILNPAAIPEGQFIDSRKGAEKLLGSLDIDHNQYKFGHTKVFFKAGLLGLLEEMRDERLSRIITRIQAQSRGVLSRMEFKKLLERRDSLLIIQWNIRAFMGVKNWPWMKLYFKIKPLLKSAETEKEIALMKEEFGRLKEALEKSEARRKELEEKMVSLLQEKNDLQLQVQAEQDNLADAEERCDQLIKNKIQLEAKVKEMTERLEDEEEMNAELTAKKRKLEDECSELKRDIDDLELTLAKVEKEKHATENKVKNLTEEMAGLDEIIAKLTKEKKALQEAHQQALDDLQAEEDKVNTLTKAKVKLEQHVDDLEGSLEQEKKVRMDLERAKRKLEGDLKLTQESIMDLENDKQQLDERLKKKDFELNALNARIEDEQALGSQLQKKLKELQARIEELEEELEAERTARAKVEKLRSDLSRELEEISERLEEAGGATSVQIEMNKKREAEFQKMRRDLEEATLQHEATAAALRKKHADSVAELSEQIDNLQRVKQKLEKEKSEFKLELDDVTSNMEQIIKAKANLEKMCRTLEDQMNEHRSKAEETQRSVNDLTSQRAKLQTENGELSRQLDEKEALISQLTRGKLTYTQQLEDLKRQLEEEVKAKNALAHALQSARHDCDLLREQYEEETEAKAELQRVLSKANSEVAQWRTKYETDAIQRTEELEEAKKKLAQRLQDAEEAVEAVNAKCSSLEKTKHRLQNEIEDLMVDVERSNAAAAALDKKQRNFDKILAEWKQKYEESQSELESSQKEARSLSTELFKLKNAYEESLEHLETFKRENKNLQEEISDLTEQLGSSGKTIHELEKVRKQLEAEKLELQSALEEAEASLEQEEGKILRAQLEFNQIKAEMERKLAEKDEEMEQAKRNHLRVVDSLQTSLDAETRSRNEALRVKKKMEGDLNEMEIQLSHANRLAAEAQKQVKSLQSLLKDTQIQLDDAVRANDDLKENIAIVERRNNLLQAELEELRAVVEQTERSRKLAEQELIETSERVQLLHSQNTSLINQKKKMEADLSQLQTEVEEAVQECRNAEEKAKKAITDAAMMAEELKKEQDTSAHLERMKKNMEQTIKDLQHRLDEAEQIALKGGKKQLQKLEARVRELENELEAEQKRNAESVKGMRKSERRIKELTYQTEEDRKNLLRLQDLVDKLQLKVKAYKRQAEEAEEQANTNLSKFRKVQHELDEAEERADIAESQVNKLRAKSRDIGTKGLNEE
bovine cardiac myosin, sequence (P85100 whole entry partner): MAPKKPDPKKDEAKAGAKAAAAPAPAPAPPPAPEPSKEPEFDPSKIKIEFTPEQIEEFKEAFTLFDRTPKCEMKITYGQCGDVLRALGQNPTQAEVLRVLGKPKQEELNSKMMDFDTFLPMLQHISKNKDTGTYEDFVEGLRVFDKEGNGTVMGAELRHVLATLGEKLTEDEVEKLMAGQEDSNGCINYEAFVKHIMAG
bovine cardiac myosin, sequence (Q3SZE5 whole entry partner): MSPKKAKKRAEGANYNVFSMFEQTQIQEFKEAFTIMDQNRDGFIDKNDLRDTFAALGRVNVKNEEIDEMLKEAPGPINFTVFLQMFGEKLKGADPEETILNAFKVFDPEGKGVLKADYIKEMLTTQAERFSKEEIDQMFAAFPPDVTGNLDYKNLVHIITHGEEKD

Structure (SMILES) | Myosin Activation (AC20)
Cn1cc(S(=O)(=O)[C@@](C)(F)C2CCN(C(=O)Nc3cocn3)CC2)c(C(F)F)n1 [Compound 248, (R)-4-(1-((3-(difluoromethyl)-1-methyl-1H-pyrazol-4-yl)sulfonyl)-1-fluoroethyl)-N-(oxazol-4-yl)piperidine-1-carboxamide] | + (+ represents myosin activation value AC20 > 5 μM)
Cn1nc(C(F)(F)F)cc1S(=O)(=O)C(C)(F)C1CCN(C(=O)Nc2ccon2)CC1 (stereo not drawn) [Compound 249, 4-(1-fluoro-1-((1-methyl-3-(trifluoromethyl)-1H-pyrazol-5-yl)sulfonyl)ethyl)-N-(isoxazol-3-yl)piperidine-1-carboxamide] | ++ (++ represents myosin activation value AC20 from 2 μM-5 μM)
Cc1ccc(NC(=O)N2CCC(C(C)(F)S(=O)(=O)c3cc(C(F)(F)F)nn3C)CC2)cn1 (stereo not drawn) [Compound 250, 4-(1-fluoro-1-((1-methyl-3-(trifluoromethyl)-1H-pyrazol-5-yl)sulfonyl)ethyl)-N-(6-methylpyridin-3-yl)piperidine-1-carboxamide] | ++ (++ represents myosin activation value AC20 from 2 μM-5 μM)
Cn1nc(C(F)(F)F)cc1S(=O)(=O)C(C)(F)C1CCN(C(=O)Nc2ccnc(F)c2)CC1 (stereo not drawn) [Compound 251, 4-(1-fluoro-1-((1-methyl-3-(trifluoromethyl)-1H-pyrazol-5-yl)sulfonyl)ethyl)-N-(2-fluoropyridin-4-yl)piperidine-1-carboxamide] | ++ (++ represents myosin activation value AC20 from 2 μM-5 μM)
Cn1nc(C(F)(F)F)cc1S(=O)(=O)C(C)(F)C1CCN(C(=O)Nc2ccc(F)nc2)CC1 (stereo not drawn) [Compound 252, 4-(1-fluoro-1-((1-methyl-3-(trifluoromethyl)-1H-pyrazol-5-yl)sulfonyl)ethyl)-N-(6-fluoropyridin-3-yl)piperidine-1-carboxamide] | ++ (++ represents myosin activation value AC20 from 2 μM-5 μM)
Cn1cc(S(=O)(=O)[C@](C)(F)C2CCN(C(=O)Nc3ccc(F)nc3)CC2)c(C(F)F)n1 [Compound 257, (S)-4-(1-((3-(difluoromethyl)-1-methyl-1H-pyrazol-4-yl)sulfonyl)-1-fluoroethyl)-N-(6-fluoropyridin-3-yl)piperidine-1-carboxamide] | + (+ represents myosin activation value AC20 > 5 μM)
Cc1ccc(NC(=O)N2CCC([C@@](C)(F)S(=O)(=O)c3cn(C)nc3C(F)F)CC2)cn1 [Compound 258, (S)-4-(1-((3-(difluoromethyl)-1-methyl-1H-pyrazol-4-yl)sulfonyl)-1-fluoroethyl)-N-(6-methylpyridin-3-yl)piperidine-1-carboxamide] | + (+ represents myosin activation value AC20 > 5 μM)
Cn1cc(S(=O)(=O)[C@@](C)(F)C2CCN(C(=O)Nc3ccc(F)nc3)CC2)c(C(F)F)n1 [Compound 259, (R)-4-(1-((3-(difluoromethyl)-1-methyl-1H-pyrazol-4-yl)sulfonyl)-1-fluoroethyl)-N-(6-fluoropyridin-3-yl)piperidine-1-carboxamide] | +++ (+++ represents myosin activation value AC20 < 2 μM)
Cc1ccc(NC(=O)N2CCC([C@](C)(F)S(=O)(=O)c3cn(C)nc3C(F)F)CC2)cn1 [Compound 260, (R)-4-(1-((3-(difluoromethyl)-1-methyl-1H-pyrazol-4-yl)sulfonyl)-1-fluoroethyl)-N-(6-methylpyridin-3-yl)piperidine-1-carboxamide] | ++ (++ represents myosin activation value AC20 from 2 μM-5 μM)
Cn1cc(S(=O)(=O)[C@@](C)(F)C2CCN(C(=O)Nc3ccc(C(F)(F)F)nc3)CC2)c(C(F)F)n1 [Compound 261, (R)-4-(1-((3-(difluoromethyl)-1-methyl-1H-pyrazol-4-yl)sulfonyl)-1-fluoroethyl)-N-(6-(trifluoromethyl)pyridin-3-yl)piperidine-1-carboxamide] | + (+ represents myosin activation value AC20 > 5 μM)
CC(F)(C1CCN(C(=O)Nc2ccnnc2)CC1)S(=O)(=O)c1ccc(C(F)(F)F)nc1 (stereo not drawn) [Compound 262, 4-(1-fluoro-1-((6-(trifluoromethyl)pyridin-3-yl)sulfonyl)ethyl)-N-(pyridazin-4-yl)piperidine-1-carboxamide] | +++ (+++ represents myosin activation value AC20 < 2 μM)
CC(F)(C1CCN(C(=O)Nc2ccnnc2)CC1)S(=O)(=O)c1ccccc1Cl (stereo not drawn) [Compound 263, 4-(1-((2-chlorophenyl)sulfonyl)-1-fluoroethyl)-N-(pyridazin-4-yl)piperidine-1-carboxamide] | +++ (+++ represents myosin activation value AC20 < 2 μM)
CC(F)(C1CCN(C(=O)Nc2ccnnc2)CC1)S(=O)(=O)c1cccc(Cl)c1 (stereo not drawn) [Compound 264, 4-(1-((3-chlorophenyl)sulfonyl)-1-fluoroethyl)-N-(pyridazin-4-yl)piperidine-1-carboxamide] | +++ (+++ represents myosin activation value AC20 < 2 μM)
CC(F)(C1CCN(C(=O)Nc2ccnnc2)CC1)S(=O)(=O)c1cccc(C#N)c1 (stereo not drawn) [Compound 265, 4-(1-((3-cyanophenyl)sulfonyl)-1-fluoroethyl)-N-(pyridazin-4-yl)piperidine-1-carboxamide] | +++ (+++ represents myosin activation value AC20 < 2 μM)
CC(F)(C1CCN(C(=O)Nc2ccnnc2)CC1)S(=O)(=O)c1ccc(C(F)(F)F)cc1 (stereo not drawn) [Compound 266, 4-(1-fluoro-1-((4-(trifluoromethyl)phenyl)sulfonyl)ethyl)-N-(pyridazin-4-yl)piperidine-1-carboxamide] | ++ (++ represents myosin activation value AC20 from 2 μM-5 μM)
Cn1nccc1S(=O)(=O)C(C)(F)C1CCN(C(=O)Nc2cnns2)CC1 (stereo not drawn) [Compound 267, 4-(1-fluoro-1-((1-methyl-1H-pyrazol-5-yl)sulfonyl)ethyl)-N-(1,2,3-thiadiazol-5-yl)piperidine-1-carboxamide] | +++ (+++ represents myosin activation value AC20 < 2 μM)
CC(F)(C1CCN(C(=O)Nc2cnns2)CC1)S(=O)(=O)c1ccc(C(F)(F)F)cc1 (stereo not drawn) [Compound 268, 4-(1-fluoro-1-((4-(trifluoromethyl)phenyl)sulfonyl)ethyl)-N-(1,2,3-thiadiazol-5-yl)piperidine-1-carboxamide] | +++ (+++ represents myosin activation value AC20 < 2 μM)
CCn1nccc1S(=O)(=O)C(C)(F)C1CCN(C(=O)Nc2ccnnc2)CC1 (stereo not drawn) [Compound 269, 4-(1-((1-ethyl-1H-pyrazol-5-yl)sulfonyl)-1-fluoroethyl)-N-(pyridazin-4-yl)piperidine-1-carboxamide] | ++ (++ represents myosin activation value AC20 from 2 μM-5 μM)
CC(F)(C1CCN(C(=O)Nc2ccnnc2)CC1)S(=O)(=O)c1ccc(C#N)cc1 (stereo not drawn) [Compound 270, 4-(1-((4-cyanophenyl)sulfonyl)-1-fluoroethyl)-N-(pyridazin-4-yl)piperidine-1-carboxamide] | +++ (+++ represents myosin activation value AC20 < 2 μM)
Cn1nccc1S(=O)(=O)C(C)(F)C1CCN(C(=O)Nc2ccnnc2)CC1 (stereo not drawn) [Compound 271, 4-(1-fluoro-1-((1-methyl-1H-pyrazol-5-yl)sulfonyl)ethyl)-N-(pyridazin-4-yl)piperidine-1-carboxamide] | ++ (++ represents myosin activation value AC20 from 2 μM-5 μM)
Cn1cnc(S(=O)(=O)C(C)(F)C2CCN(C(=O)Nc3ccnnc3)CC2)c1 (stereo not drawn) [Compound 272, 4-(1-fluoro-1-((1-methyl-1H-imidazol-4-yl)sulfonyl)ethyl)-N-(pyridazin-4-yl)piperidine-1-carboxamide] | + (+ represents myosin activation value AC20 > 5 μM)
COc1ccccc1S(=O)(=O)C(C)(F)C1CCN(C(=O)Nc2ccnnc2)CC1 (stereo not drawn) [Compound 273, 4-(1-fluoro-1-((2-methoxyphenyl)sulfonyl)ethyl)-N-(pyridazin-4-yl)piperidine-1-carboxamide] | ++ (++ represents myosin activation value AC20 from 2 μM-5 μM)
CC(F)(C1CCN(C(=O)Nc2cnns2)CC1)S(=O)(=O)c1ccc(C#N)cc1 (stereo not drawn) [Compound 274, 4-(1-((4-cyanophenyl)sulfonyl)-1-fluoroethyl)-N-(1,2,3-thiadiazol-5-yl)piperidine-1-carboxamide] | +++ (+++ represents myosin activation value AC20 < 2 μM)
CC(F)(C1CCN(C(=O)Nc2ccnnc2)CC1)S(=O)(=O)c1cc(F)cc(F)c1 (stereo not drawn) [Compound 275, 4-(1-((3,5-difluorophenyl)sulfonyl)-1-fluoroethyl)-N-(pyridazin-4-yl)piperidine-1-carboxamide] | +++ (+++ represents myosin activation value AC20 < 2 μM)
Cn1cc(S(=O)(=O)C(C)(F)C2CCN(C(=O)Nc3ccnnc3)CC2)c(C(F)F)n1 (stereo not drawn) [Compound 276, 4-(1-((3-(difluoromethyl)-1-methyl-1H-pyrazol-4-yl)sulfonyl)-1-fluoroethyl)-N-(pyridazin-4-yl)piperidine-1-carboxamide] | +++ (+++ represents myosin activation value AC20 < 2 μM)
Cn1nc(C(F)(F)F)cc1S(=O)(=O)C(C)(F)C1CCN(C(=O)Nc2ccnnc2)CC1 (stereo not drawn) [Compound 277, 4-(1-fluoro-1-((1-methyl-3-(trifluoromethyl)-1H-pyrazol-5-yl)sulfonyl)ethyl)-N-(pyridazin-4-yl)piperidine-1-carboxamide] | +++ (+++ represents myosin activation value AC20 < 2 μM)
C[C@](F)(C1CCN(C(=O)Nc2ccnnc2)CC1)S(=O)(=O)c1cccc(F)c1 [Compound 278, (R)-4-(1-fluoro-1-((3-fluorophenyl)sulfonyl)ethyl)-N-(pyridazin-4-yl)piperidine-1-carboxamide] | +++ (+++ represents myosin activation value AC20 < 2 μM)
